Assay type in all cases: cell-based
The target of one test is T1, human P2X2/3 receptors (Homo sapiens, UniProt P56373+Q9UBL9).
T1 construct: expressed in transfected cells; host or cells: human astrocytoma 1321N1 (1312N1 [sic])
T1 sequence (P56373 1-397): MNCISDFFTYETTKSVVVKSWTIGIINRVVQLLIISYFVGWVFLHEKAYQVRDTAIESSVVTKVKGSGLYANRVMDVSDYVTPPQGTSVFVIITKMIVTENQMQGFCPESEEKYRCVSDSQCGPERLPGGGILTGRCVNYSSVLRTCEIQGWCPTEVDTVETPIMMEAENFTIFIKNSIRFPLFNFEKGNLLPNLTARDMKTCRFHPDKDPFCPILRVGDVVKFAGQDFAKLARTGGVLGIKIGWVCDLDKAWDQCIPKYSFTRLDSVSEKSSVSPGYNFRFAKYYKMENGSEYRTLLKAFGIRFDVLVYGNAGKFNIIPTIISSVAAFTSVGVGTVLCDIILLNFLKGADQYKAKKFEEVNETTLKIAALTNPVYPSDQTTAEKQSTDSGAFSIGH
T1 sequence (Q9UBL9 1-471): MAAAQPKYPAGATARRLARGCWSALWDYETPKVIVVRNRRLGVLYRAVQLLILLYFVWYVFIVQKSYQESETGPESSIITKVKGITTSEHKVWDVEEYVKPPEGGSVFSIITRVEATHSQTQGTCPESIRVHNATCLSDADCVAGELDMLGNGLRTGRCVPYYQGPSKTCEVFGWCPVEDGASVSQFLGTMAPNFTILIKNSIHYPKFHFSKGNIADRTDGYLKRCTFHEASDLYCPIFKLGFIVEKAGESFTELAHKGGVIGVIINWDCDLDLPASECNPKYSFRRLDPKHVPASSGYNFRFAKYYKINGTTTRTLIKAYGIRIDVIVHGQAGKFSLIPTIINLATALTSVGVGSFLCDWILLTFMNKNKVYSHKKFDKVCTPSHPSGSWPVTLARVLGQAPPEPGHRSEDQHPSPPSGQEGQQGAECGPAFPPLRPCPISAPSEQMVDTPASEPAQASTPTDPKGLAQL
The test can be described thus: Intracellular calcium measurement, antagonist activity at human P2X2/3 receptors (hP2X23 1321N1), Fluo8. Conditions: for IC50: column 4); 1321N1 cells, human P2X2/3, Fluo8, agonist ATP at EC50; read-out: 4) hP2X2/3 IC50 [nM] (1321N1); for hP2X23/hP2X3* Selectivity (1321N1): ratio of column 4) hP2X2/3 to column 3) hP2X3, 1321N1. The method, then:
(§1) 3) And 4) Intracellular Calcium Measurement to Compare Antagonist Activity at Human P2X3 Receptors (hP2X3 1321N1) and at Human P2X2/3 Receptors (hP2X23 1321N1)
(§2) The comparison of antagonistic activity at the P2X3 versus the P2X2/3 receptor of the compounds of the invention were performed by use of recombinant cell lines. These cell lines derived originally from the human astrocytoma cell line […] (Macintyre E H, Pontén J, Vatter A E. Acta Pathol Microbiol Scand A. 1972; 80(2):267-83). The cell lines are stably transfected with the human P2X3 receptor forming homotrimeric P2X3 receptors or are co-transfected with P2X2 and P2X3 forming heterotrimeric P2X2/3 receptors. Stimulation of the receptors with the agonist ATP leads to a conformational change of the receptors and influx of extracellular calcium ions through the open ion channel. The cytoplasmatic calcium transient is detected via the calcium sensitive dye Fluo8. The strength of Fluo8 fluorescence signal corresponds to the level of receptor activation. An inhibitor would decrease the signal depending on its potency and concentration. Fluorescence was measured by use of a suitable fluorescence reader.
(§3) On the day before the assay, the cells were plated in culture medium (DMEM high glucose, 10% FCS, 1% MEM non-essential amino acids, 4 mM Glutamax) in 384-well poly-D-lysine coated microtiter plates and kept in a cell incubator (96% humidity, 5% v/v CO2, 37° C.). On the day of the assay medium was exchanged by Fluo8 containing buffer and incubated for 60 minutes. Test compounds were added at various concentrations and plates were incubated for 10 minutes. In the fluorescence reader a 3 seconds baseline measurement was performed and the agonist ATP was applied at EC50 concentration of the respective receptor during constant fluorescence measurement for 120 seconds.
On the technique in general: Calcium assays in cells follow changes in intracellular calcium, usually with a dye or a luminescent sensor.

In test [1] the target is T2, human P2X3 receptor (Homo sapiens, UniProt P56373).
T2 sequence (P56373 1-397): T1 sequence (P56373 1-397)
The test can be described thus: Intracellular calcium measurement to assess antagonist activity at human P2X3 receptors (hP2X3 CHO), photina luminescence. Conditions: column 2), CHO cells, agonist α,β-methylene-ATP at EC50. The arrangement: expressed in transfected cells; host or cells: Chinese hamster ovary (CHO) cells. The method, then:
2) Intracellular Calcium Measurement to Assess Antagonist Activity at Human P2X3 Receptors (hP2X3 CHO)
The determination of antagonistic activity at the P2X3 receptor of the compounds of the invention was performed by use of a recombinant cell line. This cell line derives originally from the Chinese hamster ovary (CHO) cell line (Tjio J. H.; Puck T. T., 1958, J. Exp. Med. 108: 259-271). The cell line is stably transfected with the human P2X3 receptor and a calcium-sensitive photoprotein, mitochondrial photina, which, after reconstitution with the cofactor coelenterazine, emits light in dependence of calcium binding [Bovolenta S, Foti M, Lohmer S, Corazza S., J Biomol Screen. 2007 August; 12(5):694-704]. The strength of the photina luminescence signal corresponds to the level of receptor activation upon agonist binding. An inhibitor would decrease the signal depending on its potency and concentration. Bioluminescence was detected using a suitable luminometer [Milligan G, Marshall F, Rees S, Trends in Pharmacological Sciences 17,235-237 (1996)].
On the day before the assay, the cells were plated out in culture medium (DMEM/F12 (PAN, P04-41451), 10% FCS) in 384-well microtiter plates and kept in a cell incubator (96% humidity, 5% v/v CO2, […]). On the day of the assay medium was replaced by 2 mM Ca-tyrode buffer containing 5 μg/ml coelenterazine. Plates were incubated for 3 hours at 37° C. (96% humidity, 5% v/v CO2). […] The resulting light signal was measured immediately in the luminometer.

The target in test [2] is T2, human P2X3 receptor. The test can be described thus: Intracellular calcium measurement, antagonist activity at human P2X3 receptors (hP2X3 1321N1), Fluo8. Further details: expressed in transfected cells; host or cells: human astrocytoma 1321N1 (1312N1 [sic]). Conditions: column 3); 1321N1 cells, human P2X3, Fluo8, agonist ATP at EC50. As to the method: as §1, §2, §3

Results on 16 molecules are retold here after patent publication US11319324B2, “Pyrazolo-pyrrolo-pyrimidine-dione derivatives as P2X3 inhibitors” (Bayer Aktiengesellschaft, priority 2017, dated 2022).

Consider `CCc1cc2n(CC(=O)Nc3ccc(F)cn3)c3c(c(=O)n2n1)CN(C1CCOC1)C3=O` (racemic) [Example 71, 2-{2-ethyl-5,8-dioxo-6-[(±)-tetrahydrofuran-3-yl]-5,6,7,8-tetrahydro-4H-pyrazolo[1,5-a]pyrrolo[3,4-d]pyrimidin-4-yl}-N-(5-fluoropyridin-2-yl)acetamide], for which the IC50 was > 23000 nM at human P2X2/3 receptors, 111 nM at human P2X3 receptor [1] and 125 nM on human P2X3 receptor [2]. The “hP2X23/hP2X3* Selectivity (1321N1)” value at human P2X2/3 receptors is >184.
`CCc1cc2n(CC(=O)Nc3ccc(F)cn3)c3c(c(=O)n2n1)CN(CC1CCCO1)C3=O` (racemic) [Example 77, 2-{2-ethyl-5,8-dioxo-6-[(±)-tetrahydrofuran-2-ylmethyl]-5,6,7,8-tetrahydro-4H-pyrazolo[1,5-a]pyrrolo[3,4-d]pyrimidin-4-yl}-N-(5-fluoropyridin-2-yl)acetamide]: the results for the IC50 on human P2X2/3 receptors, on human P2X3 receptor [1] and at human P2X3 receptor [2] were 9050 nM, 102 nM and 185 nM, respectively. In addition, the “hP2X23/hP2X3* Selectivity (1321N1)” value on human P2X2/3 receptors is 49.
As to `CC(C)N1Cc2c(n(CC(=O)Nc3ccc(F)cn3)c3cc(C4CCN(C(=O)OC(C)(C)C)C4)nn3c2=O)C1=O` (racemic) [Example 226, tert-butyl(±)-3-[4-{2-[(5-fluoropyridin-2-yl)amino]-2-oxoethyl}-5,8-dioxo-6-(propan-2-yl)-5,6,7,8-tetrahydro-4H-pyrazolo[1,5-a]pyrrolo[3,4-d]pyrimidin-2-yl]pyrrolidine-1-carboxylate], the IC50 amounted to 3050 nM on human P2X2/3 receptors, 22 nM at human P2X3 receptor [1] and 39 nM on human P2X3 receptor [2]. Also, the “hP2X23/hP2X3* Selectivity (1321N1)” value at human P2X2/3 receptors is reported as 78.
For `CC(C)N1Cc2c(n(CC(=O)Nc3ccc(F)cn3)c3cc(C4CCOC4)nn3c2=O)C1=O` (racemic) [Example 228, 2-{5,8-dioxo-2-[(±)-oxolan-3-yl]-6-(propan-2-yl)-5,6,7,8-tetrahydro-4H-pyrazolo[1,5-a]pyrrolo[3,4-d]pyrimidin-4-yl}-N-(5-fluoropyridin-2-yl)acetamide] the same measures were > 23500 nM, 95 nM, 20 nM and >1175.
In the same order, the values of `CC(C)N1Cc2c(n(CC(=O)Nc3ccc(F)cn3)c3cc(C4CCNC4)nn3c2=O)C1=O.Cl` (racemic) [Example 235, 2-{5,8-dioxo-6-(propan-2-yl)-2-[(±)-pyrrolidin-3-yl]-5,6,7,8-tetrahydro-4H-pyrazolo[1,5-a]pyrrolo[3,4-d]pyrimidin-4-yl}-N-(5-fluoropyridin-2-yl)acetamide hydrochloride (1:1)] are > 66000 nM, 155 nM, 340 nM and >194.
For `CCc1cc2n(CC(=O)Nc3ccc(F)cn3)c3c(c(=O)n2n1)CN(C1CCNC1)C3=O.Cl` (racemic) [Example 236, 2-{2-ethyl-5,8-dioxo-6-[(±)-pyrrolidin-3-yl]-5,6,7,8-tetrahydro-4H-pyrazolo[1,5-a]pyrrolo[3,4-d]pyrimidin-4-yl}-N-(5-fluoropyridin-2-yl)acetamide hydrochloride (1:1)] the same measures were > 32000 nM, 615 nM, 1280 nM and >25.
`CC(C)N1Cc2c(n(CC(=O)Nc3ccc(F)cn3)c3cc(C4CCN(C)C4)nn3c2=O)C1=O` (racemic) [Example 249, N-(5-fluoropyridin-2-yl)-2-{2-[(±)-1-methylpyrrolidin-3-yl]-5,8-dioxo-6-(propan-2-yl)-5,6,7,8-tetrahydro-4H-pyrazolo[1,5-a]pyrrolo[3,4-d]pyrimidin-4-yl}acetamide]: the IC50 was found to be 9200 nM on human P2X2/3 receptors, 305 nM on human P2X3 receptor [1] and 109 nM at human P2X3 receptor [2]. Besides, the “hP2X23/hP2X3* Selectivity (1321N1)” value on human P2X2/3 receptors came out at 85.
Take `COC[C@H](C)N1Cc2c(n(CC(=O)Nc3ccc(F)cn3)c3cc(-c4ncccc4C)nn3c2=O)C1=O` [Example 164]: the IC50 at human P2X2/3 receptors came to 3700 nM; at human P2X3 receptor [1], 20 nM.
For `CC(C)N1Cc2c(n(CC(=O)Nc3ccc(F)cn3)c3cc(-c4ccc(F)cn4)nn3c2=O)C1=O` [Example 165] the same measures were 1460 nM and 13 nM.
Turning to `CC(C)N1Cc2c(n(CC(=O)Nc3ccc(F)cn3)c3cc(C(=O)Nc4ccccn4)nn3c2=O)C1=O` [Example 201], the IC50 on human P2X2/3 receptors came to 3870 nM; on human P2X3 receptor [1] it was 37 nM.
On to `CC(C)N1Cc2c(n(CC(=O)Nc3ccc(F)cn3)c3cc(C(=O)Nc4c(F)cccc4F)nn3c2=O)C1=O` [Example 205], for which the IC50 on human P2X2/3 receptors was found to be 5000 nM; at human P2X3 receptor [1], 17 nM.
For `CC(C)N1Cc2c(n(CC(=O)Nc3ccc(F)cn3)c3cc(C(=O)Nc4cccnc4)nn3c2=O)C1=O` [Example 207] the same measures were 2680 nM and 17 nM.
For `COC[C@H](C)N1Cc2c(n(CC(=O)Nc3ccc(F)cn3)c3cc(C(=O)N(C)c4ccccn4)nn3c2=O)C1=O` [Example 214] the same measures were 6450 nM and 22 nM.
For `COC[C@H](C)N1Cc2c(n(CC(=O)Nc3ccc(F)cn3)c3cc(C(=O)Nc4cccnn4)nn3c2=O)C1=O` [Example 216] the same measures were 5600 nM and 20 nM.
In the case of `COC[C@H](C)N1Cc2c(n(CC(=O)Nc3ccc(F)cn3)c3cc(C(=O)N(C)Cc4cccnc4)nn3c2=O)C1=O` [Example 218], the IC50 on human P2X2/3 receptors was found to be 11500 nM; at human P2X3 receptor [1], 15 nM.
For `O=C(Cn1c2c(c(=O)n3nc(C(=O)Nc4ccccc4F)cc13)CN(Cc1ccccn1)C2=O)Nc1ccc(F)cn1` [Example 222] the same measures were 1350 nM and 15 nM.
